The supplement of paper PMC4862054
Several values for one entry are separate records, joined by “and”; a condition that tells them apart may be missing. Identical values can stand only once.

Legend:
Test in all cases: normalised viability (% of control), CellTiter-Blue; higher = more viable cells (about 100 = DMSO control)
Conditions in all cases: incubation time: 72 h
SK-BR-3 = tested on: SK-BR-3
In short: (§1)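 384-well plates were pre-loaded with compound in 5 µl medium before 20 µl of breast cancer cell suspension was seeded. Following 72 h incubation, 2.5 µl CellTiter-Blue reagent was added for 2 h at 37 °C. Fluorescence was read at 560/590 nm and plates were normalised to vehicle (100) and a positive kill control (0), checked by Z'-factor. Normalised viability is reported at a single listed concentration of the series.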

CAL-120 = tested on: CAL-120
In short: as §1

MDA-MB-468 = tested on: MDA-MB-468
In short: as §1

HCC1599 = tested on: HCC1599
In short: as §1

CAL-85-1 = tested on: CAL-85-1
In short: as §1

BT-474 = tested on: BT-474
In short: as §1

MDA-MB-436 = tested on: MDA-MB-436
In short: as §1

SMILES	normalised viability (SK-BR-3; 10 nM)	normalised viability (SK-BR-3; 1000 nM)	normalised viability (SK-BR-3; 10000 nM)	normalised viability (CAL-120; 10 nM)	normalised viability (CAL-120; 1000 nM)	normalised viability (CAL-120; 10000 nM)	normalised viability (MDA-MB-468; 10 nM)	normalised viability (MDA-MB-468; 1000 nM)	normalised viability (MDA-MB-468; 10000 nM) [%]	normalised viability (HCC1599; 10 nM)	normalised viability (HCC1599; 10000 nM)	normalised viability (CAL-85-1; 3 nM)	normalised viability (CAL-85-1; 30 nM)	normalised viability (CAL-85-1; 100 nM)	normalised viability (BT-474; 10 nM)	normalised viability (BT-474; 1000 nM)	normalised viability (BT-474; 10000 nM)	normalised viability (MDA-MB-436; 1000 nM)	normalised viability (MDA-MB-436; 10000 nM)	normalised viability (HCC1599; 1000 nM) [%]	further results
CCCCCOC(=O)Nc1nc(=O)n([C@@H]2O[C@H](C)[C@@H](O)[C@H]2O)cc1F [Capecitabine]	107% and 86.8%	108% and 93.6%	78.4% and 85.5%	82.6% and 98.9%	83.9% and 100%	91.1% and 96.5%	106% and 131%	108% and 104%	104	99.6% and 100%	96.4% and 111%	87.5% and 102%	88.5% and 90.9%	91.8% and 103%	124% and 104%	120% and 108%	124% and 105%	72.3% and 89%	83.6% and 89%		
CC(C)C[C@H](NC(=O)[C@H](CCc1ccccc1)NC(=O)CN1CCOCC1)C(=O)N[C@@H](Cc1ccccc1)C(=O)N[C@@H](CC(C)C)C(=O)[C@@]1(C)CO1 [Carfilzomib]		12.6%			2.9%			2.35%				86%				13.9%		10.9%		38.9	normalised viability (SK-BR-3; 1 nM): 97.8%; normalised viability (SK-BR-3; 100 nM): 16.7%; normalised viability (CAL-120; 1 nM): 100%; normalised viability (CAL-120; 100 nM): 4.54%; normalised viability (MDA-MB-468; 1 nM): 117%; normalised viability (MDA-MB-468; 100 nM): 3.17%; normalised viability (HCC1599; 1 nM): 106%; normalised viability (HCC1599; 100 nM): 64.6%; normalised viability (CAL-85-1; 0.3 nM): 107%; normalised viability (CAL-85-1; 10 nM): 72.1%; normalised viability (BT-474; 1 nM): 107%; normalised viability (BT-474; 100 nM): 21.8%; normalised viability (MDA-MB-436; 1 nM): 96.8%; normalised viability (MDA-MB-436; 100 nM): 6.97%
Nc1nc(Cl)nc2c1ncn2[C@@H]1O[C@H](CO)[C@@H](O)[C@@H]1F [Clofarabine]	93%	41.9%	35.6%	89.1%	47.7%	50.4%	98.5%	39.5%	20.5	106%	71.6%	95.8%	90.4%	82.6%	106%	101%	102%	47.6%	56%	87.5	normalised viability (MDA-MB-436; 10 nM): 109%
CCN(CC)CCOc1ccc(C(=C(Cl)c2ccccc2)c2ccccc2)cc1 [Clomifene]	105%	105%	67.2%	93.4%	95.3%	18%	98.2%	98.1%	6.16	93.8%	68.1%	91.3%	92.4%	91.2%	118%	111%	17.1%	109%	27.5%	106	normalised viability (MDA-MB-436; 10 nM): 119%
C[C@@H]1C[C@H]2[C@@H]3CCC4=CC(=O)C=C[C@]4(C)[C@@]3(F)[C@@H](O)C[C@]2(C)[C@@]1(O)C(=O)CO [Dexamethasone]	99.2%	86.7%	93%	76%	77%	80.1%	114%	112%	100	124%	86.7%	102%	93.1%	110%	110%	119%	118%	89.6%	104%	82.1	normalised viability (MDA-MB-436; 10 nM): 127%
CC(C)C(=O)Nc1ccc([N+](=O)[O-])c(C(F)(F)F)c1 [Flutamide]	108%	106%	106%	96.7%	95.6%	96.8%	97.6%	103%	111	105%	118%	101%	91.8%	101%	117%	115%	116%	95.4%	91.6%	114	normalised viability (MDA-MB-436; 10 nM): 91.5%
COc1cc2c(Oc3ccc(NC(=O)C4(C(=O)Nc5ccc(F)cc5)CC4)cc3F)ccnc2cc1OCCCN1CCOCC1 [Foretinib]		77.5%			41.8%			52.4%				86.3%				84.3%		84%		72.6	normalised viability (SK-BR-3; 1 nM): 97.5%; normalised viability (SK-BR-3; 100 nM): 102%; normalised viability (CAL-120; 1 nM): 88.3%; normalised viability (CAL-120; 100 nM): 95.4%; normalised viability (MDA-MB-468; 1 nM): 102%; normalised viability (MDA-MB-468; 100 nM): 111%; normalised viability (HCC1599; 1 nM): 77.2%; normalised viability (HCC1599; 100 nM): 89.9%; normalised viability (CAL-85-1; 0.3 nM): 95%; normalised viability (CAL-85-1; 10 nM): 95.8%; normalised viability (BT-474; 1 nM): 102%; normalised viability (BT-474; 100 nM): 117%; normalised viability (MDA-MB-436; 1 nM): 132%; normalised viability (MDA-MB-436; 100 nM): 77.8%
NC(=O)NO [Hydroxyurea]			117%			95.4%			111		87.4%		104%				111%		89.4%		normalised viability (SK-BR-3; 100 nM): 114%; normalised viability (SK-BR-3; 100000 nM): 114%; normalised viability (CAL-120; 100 nM): 113%; normalised viability (CAL-120; 100000 nM): 101%; normalised viability (MDA-MB-468; 100 nM): 110%; normalised viability (MDA-MB-468; 100000 nM): 108%; normalised viability (HCC1599; 100 nM): 107%; normalised viability (HCC1599; 100000 nM): 95.9%; normalised viability (CAL-85-1; 300 nM): 93.2%; normalised viability (CAL-85-1; 1000 nM): 105%; normalised viability (BT-474; 100 nM): 110%; normalised viability (BT-474; 100000 nM): 110%; normalised viability (MDA-MB-436; 100 nM): 99.4%; normalised viability (MDA-MB-436; 100000 nM): 102%
O=NN(CCCl)C(=O)NC1CCCCC1 [Lomustine]	97.3%	125%	96%	93.9%	91.3%	105%	100%	98.1%	95.6	108%	117%	104%	88%	104%	108%	114%	128%	95.5%	97.7%	81.4	normalised viability (MDA-MB-436; 10 nM): 108%
O=C(O)CC[C@H]1CC[C@@](c2cc(F)ccc2F)(S(=O)(=O)c2ccc(Cl)cc2)CC1 [MK-0752]		111%			95.7%			110%				82.4%				134%		111%		74.7	normalised viability (SK-BR-3; 1 nM): 106%; normalised viability (SK-BR-3; 100 nM): 105%; normalised viability (CAL-120; 1 nM): 90.2%; normalised viability (CAL-120; 100 nM): 97.2%; normalised viability (MDA-MB-468; 1 nM): 98.9%; normalised viability (MDA-MB-468; 100 nM): 94.9%; normalised viability (HCC1599; 1 nM): 98.2%; normalised viability (HCC1599; 100 nM): 81.8%; normalised viability (CAL-85-1; 0.3 nM): 98.7%; normalised viability (CAL-85-1; 10 nM): 103%; normalised viability (BT-474; 1 nM): 121%; normalised viability (BT-474; 100 nM): 128%; normalised viability (MDA-MB-436; 1 nM): 109%; normalised viability (MDA-MB-436; 100 nM): 92.2%
NC1(c2ccc(-c3nc4ccn5c(=O)[nH]nc5c4cc3-c3ccccc3)cc2)CCC1 [MK-2206]		42.1%			79.2%			72.9%				95%				54%		81%		62.3	normalised viability (SK-BR-3; 1 nM): 107%; normalised viability (SK-BR-3; 100 nM): 76.2%; normalised viability (CAL-120; 1 nM): 111%; normalised viability (CAL-120; 100 nM): 106%; normalised viability (MDA-MB-468; 1 nM): 108%; normalised viability (MDA-MB-468; 100 nM): 90.7%; normalised viability (HCC1599; 1 nM): 98.8%; normalised viability (HCC1599; 100 nM): 95.7%; normalised viability (CAL-85-1; 0.3 nM): 104%; normalised viability (CAL-85-1; 10 nM): 100%; normalised viability (BT-474; 1 nM): 115%; normalised viability (BT-474; 100 nM): 92.3%; normalised viability (MDA-MB-436; 1 nM): 104%; normalised viability (MDA-MB-436; 100 nM): 80.7%
